Results on 4 compounds are retold here after patent publication US20080051393A1, “Novel cannabinoids and methods of use” (Eastern Virginia Medical School, priority 2006, published 2008).

Entries after “also recorded” stand apart in the source; their conditions may differ.

Data set [1] deals with IOP in a rat glaucoma model. Put plainly: IOP after topical application in chronic rat glaucoma model. The format is in vivo, Sprague-Dawley rats. The conditions noted are these: for Effect on IOP compared to baseline or vehicle: all concentrations tested. The text has this: (§1) Rat Glaucoma Model. Compared to acute studies, a chronic rat model of glaucoma was generated. The rats were made glaucomatous by ligating three vortex veins (Hosseini, A. et al. (2006) Chronic topical administration of WIN-55-212-2 maintinas a reduction in IOP in a rat glaucoma model without adverse effects. Exp. Eye Res. 82(5):753-9). More specifically, ocular hypertension was induced in Sprague-Dawley rats by ligating 3 of 4 episcleral veins of the right eye using 9.0 nylon sutures under anesthesia with 3 mg/Kg acepromazine and 20 mg/Kg ketamine. Within 6 wk, IOP increased by at least 5 mm Hg in the operated eye. This intervention produced at least a 30% increase in IOP in the operated eye and lasted for up to 60 weeks. During this time, a 30% loss of retinal function was documented by ERG. […] Thus, the model accurately mimics the progressive damage that occurs in patients with glaucoma.
(§2) Measurements of Intraocular Pressure. IOP elevation was measured under mild sedation using a calibrated Goldmann tonometer modified for rats. Three determinations were averaged for each eye. To account for diurnal variation, all IOP's were measured between 11 am and 1 pm during the daily trough period.
Therapeutic Regimen. For IOP Measurements (Topical application) Baseline IOP, heart rate, blood pressure and normal ocular anatomy were documented prior to drug administration. The drugs WIN 55-212-2 (0.1%, 1.0%), O-1812 (0.01%, 0.1%, 1.0%), O-2545 (0.1%, 1.0%) were all dissolved in Tocrisolve™ (vehicle). IOP, heart rate, and blood pressure were measured prior to and after 30, 60 and 120 min after topical administration. Contralateral eyes served as vehicle treated controls.

The nature of data set [2]: Ocular toxicity by slit lamp, MacDonald-Shadduck scoring. Type of data set: in vivo, rats. The conditions noted are these: topical. The protocol:
Slit Lamp Biomicroscopy/Digital Photography. Ocular toxicity was measured using slit lamp examination and performed using a modified MacDonald-Shadduck semi-quantitative scale for ocular irritation (McDonald, T. O. and Shadduck, J. A. (1987) Eye irriation. In Dermatotoxicology. 3rd Ed. Mazulli and Maibach. Pp 641-696. Washington, DC: Hemisphere). All eyes were examined by a slit lamp fitted with a color digital camera for digital photography of conjunctiva, cornea, and anterior camber. Images were stored and analyzed using a digital video system (Lombart Instruments DVS System). At baseline and following drug administration, eyes were examined for conjunctival congestion, conjunctival discharge, corneal edema, aqueous flare, fibrin, and iris congestion (Samudre, S. S. et al. (2004) Comparison of Topical Steroids for Acute Anterior Uveitis. J. Ocul. Pharmacol. Ther. 20 (6):533-547). Knowledgeable, masked observers rated each factor on a semi-quantitative four point scale where zero was coded normal, 1=minimal, 2=moderate and 3=severe involvement. Results were compared to the normal baseline evaluation performed before treatment and also with the untreated contralateral eye.

The subject of data set [3] is Rat NMDA Model. Put plainly: Rat NMDA model: electroretinogram a-wave. Type of data set: in vivo. The conditions noted are these: for Effect of CB1 antagonist SR-141716 on the action of the drug (ERG a-wave): drug 0.1% + SR-141716 2 mM. Here is the method: (§3) Rat NMDA Model. To mimic glaucomatous damage to the retina without a potentially confounding effect on IOP, retinal damage was induced by NMDA in a rat model. Following baseline measurements, e.g. IOP, ERG, slit lamp, fundus photography, heart rate and blood pressure, N-methyl D-aspartate (NMDA, 2 μl of 10 mM) was injected intravitreally to induce RGC damage. […] For positive identification, a hand scanner was used each time the rat was examined. This was necessary since the examiners will be masked as to treatment group. Treatment groups consisted of either NMDA only (control), O-1812 (0.1%) or O-2545 (0.1%), O-1812 (0.1%)+SR-141716 (2 mM), O-2545 (0.1%)+SR-141716 (2 mM), O-1812 (0.1%)+SR-144258 (2 mM) and O-2545 (0.1%)+SR-144258 (2 mM). All experiments were conducted in accordance with the policies of the Institutional Animal Care and Use Committee and the ARVO policy on use of animals in experiments. A minimum of two baseline ERG measurements was recorded 1 wk prior, 1 wk and 2 wk post injection. At the end of each experiment, rats were sacrificed and their eyes were preserved for histological assessment of effects on the retina and optic nerve.
Electroretinogram. In normal retina, full field electroretinography (ERG) stimulates both rods (a-waves) and cones (b-waves). A decrease in their amplitudes indicates retinal functional damage. Scotopic ERG changes were measured in rats that were dark-adapted for at least 4 hours. Eyes were then dilated with 1% atropine after which 0.5% proparacaine and methylcellulose gel (GPS 2.5%) was applied topically. Custom made AgCl electrodes were placed on the apex of the cornea. Stimuli consisted of 10-μsec flashes of unattenuated white light generated by a Ganzfeld bowl photo stimulator. Data from each eye were recorded separately with a driver amplifier and acquired digitally via DASYLab. The contralateral normal eye served as an age matched negative control, e.g. response in a normal, undamaged eye. Differences in amplitude of the a- and b-waves between the operated eye and the contralateral eye were calculated and analyzed by ANOVA and t-test.

The subject of data set [4] is retinal ganglionic cells (RGC). Put plainly: Rat NMDA model: retinal flat mounts, RGC count. The format is in vivo. The conditions noted are these: NMDA model, retinal flat mounts. The protocol: as §3
Histology. For retinal flat mounts, retinas were dissected from formalin fixed whole eyes, mounted on superfrost glass slides, stained with hematoxylin and eosin and digitally photographed. For analysis, the retina was divided into four quadrants. A minimum of five 50 μm^2 sections per quadrant were used to count cell number. The cell sections were selected to be equidistant from the optic cup for all quadrants. For optic nerve experiments, the optic nerve was dissected at the margin of the optic disk and embedded in cryo media. Sections of 10 μm thickness were cut and mounted on superfrost glass slides and stained with hematoxylin and eosin. The slides were digitally photographed.

The test system of data set [5] is optic nerve. Put plainly: Rat NMDA model: optic nerve histology. Type of data set: in vivo. Here is the method:
as §3
Histology. For retinal flat mounts, retinas were dissected from formalin fixed whole eyes, mounted on superfrost glass slides, stained with hematoxylin and eosin and digitally photographed. […]

The test system of data set [6] is IOP in a rat glaucoma model. As to the kind of experiment: Combination therapy: IOP in a rat glaucoma model. The conditions noted are these: 1.0% topical alone, 120 min. Type of data set: in vivo, Sprague Dawley rats.
Description: as §1, §2
Combination Therapy. Since cannabinoids and timolol, which are both known to reduce IOP, have different mechanisms of action, there is potential for a synergistic effect. The combination of timolol and a synthetic cannabinoid (WIN55 212-2, O-1812, or O-2545) to reduce IOP in a chronic rat model of ocular hypertension was examined. Surgical ligation of three of the four episcleral veins in one eye of Sprague Dawley rats caused a long lasting (>44 week) increase in IOP. IOP was measured by Goldmann tonometry at baseline (−30), 0, 30, 60 and 120 min, as was heart rate and blood pressure. For combination therapy, after baseline IOP measurement, timolol 0.5% was applied topically followed 30 min later by WIN55 212-2 1.0%, O-1812 1.0%, or O-2545 1.0%. In another experiment, O-1812 1.0% and O-2545 1.0% were administered simultaneously. An analysis for ocular irritation was performed by slit lamp examination (SLE) at baseline and 150 min.

Data set [7] can be described thus: Corneal thickness by in vivo confocal microscopy. The arrangement: species or system rats. The conditions noted are these: 1.0% treated eye (OD) vs contralateral control (OS). Here is the method:
Confocal Microscopy. Repeated noninvasive in vivo visualization of cornea and anterior segments for the presence, location and number of inflammatory cells, as well as fibrin, hyper-refractile bodies and changes in epithelial, stromal and endothelial cell morphology was performed by confocal microscopy. Prior to applanation, rats were sedated and 0.5% proparacaine was applied topically. Data was analyzed using the Metamorph imaging system (Universal Imaging, Downingtown, Pa.).

Data set [8] has as its system peripheral retinal ganglion cell. The conditions noted are these: cited from earlier work.

For `C[C@H](CO)NC(=O)CCC/C=C\C/C=C\C/C=C\C/C=C\C(C)(C)CCCCC#N` [Compound O-1812], in data set [1] (0.01% topical), the “Effect on IOP” value is recorded as “significantly reduced IOP” and the “Time for which the IOP decrease was maintained” value was not above 60 min. The “IOP after 60 min (% of Baseline)” value in data set [1] (0.01% topical, 60 min) is listed as 81.9 ± 2.7 % of Baseline. Further, the “IOP after 60 min (% of Baseline)” value in data set [1] (0.10% topical, 60 min) is reported as 78.3 ± 3.1 % of Baseline. Moreover, the “Relative efficacy in IOP reduction” value in data set [1] (1.0% topical) is recorded as “most efficacious”. Further, the “IOP after 60 min (% of Baseline)” value in data set [1] (1.0% topical, 60 min) is recorded as 61.9 ± 3.9 % of Baseline. For the same compound, in data set [1] (topical), the “Onset of IOP lowering action” value is “most rapid onset” and the “Effect on IOP compared to baseline or vehicle” value is “effective; also recorded: significantly reduced IOP”. For the same compound, the “Ocular toxicity / signs of ocular inflammation” value in data set [2] is recorded as “non-toxic”. Further, in data set [3] (NMDA intravitreal, drug 0.1%), the “Retinal function, A-wave ERG (percentage of the contralateral normal eye)” value is reported as “more effectively preserved retinal function”. Also, in data set [3], the “Effect of CB1 antagonist SR-141716 on the action of the drug (ERG a-wave)” value was “effectively blocked”. Besides, in data set [3] (drug 0.1% + SR-144258 2 mM), the “Effect of CB2 antagonist SR-144258 on the action of the drug (ERG a-wave)” value is listed as “no effect”. Also, in data set [4], the “Preservation of the number of RGCs” value is reported as “preserved the number of RGCs” and the RGCs preserved entry is listed as “up to 83%”. In data set [5], the “Protection of optic nerve against NMDA induced damage” value is recorded as “prevented much of the NMDA induced damage”. Further, in data set [6], the “IOP at 120 min (% Baseline)” value is on record as 62.0 ± 0.5 % Baseline.

For `CC1=CC[C@@H]2[C@@H](C1)c1c(O)cc(C(C)(C)CCCCn3ccnc3)cc1OC2(C)C` [Compound O-2545], the “Time for which significant IOP reduction was maintained” value in data set [1] (0.1% topical) and in data set [1] (1.0% topical) was “up to 120 min” each time. The “Effect on IOP at 30 min” value in data set [1] (0.1% topical) and in data set [1] (1.0% topical) was “significantly reduced IOP” each time. Moreover, the “IOP after 60 min (% of Baseline)” value in data set [1] (0.10% topical, 60 min) is recorded as 77.8 ± 2.8 % of Baseline; in data set [1] (1.0% topical, 60 min) it was 76.4 ± 2.8 % of Baseline. In addition, in data set [1] (topical), the “Duration of IOP lowering action” value is reported as “longest duration of action”. The “Effect of CB1 antagonist SR-141716 on the action of the drug (ERG a-wave)” value in data set [3] is given as “effectively blocked”. Further, the “Preservation of the number of RGCs” value in data set [4] is “preserved the number of RGCs”. Besides, in data set [5], the “Protection of optic nerve against NMDA induced damage” value is “prevented much of the NMDA induced damage”. The “IOP at 120 min (% Baseline)” value in data set [6] was found to be 65.5 ± 0.8 % Baseline.

For the compound `Cc1c(C(=O)c2cccc3ccccc23)c2cccc3c2n1[C@H](CN1CCOCC1)CO3` [WIN 55-212-2, reference compound], in data set [1] (0.01% topical, 60 min), the “IOP after 60 min (% of Baseline)” value is 83.1 ± 5.5 % of Baseline. In addition, the “Effect on IOP compared to vehicle or baseline” value in data set [1] (0.1% topical) is “not significantly different from either vehicle or baseline”. In data set [1] (1.0% topical), the “Time for which significant IOP reduction was maintained” value was “up to 120 min” and the “Effect on IOP at 30 min” value is given as “significantly reduced IOP”. Besides, in data set [1] (1.0% topical, 60 min), the “Effect on IOP at 60 min” value is listed as “significantly reduced” and the “IOP after 60 min (% of Baseline)” value is given as 58.3 ± 5.6 % of Baseline. Further, the “Effect on IOP compared to baseline or vehicle” value in data set [1] (topical) is on record as “effective”. Moreover, the “Ocular toxicity / signs of ocular inflammation” value in data set [2] is “non-toxic”. Besides, in data set [7], the Corneal thickness result is given as “remained unchanged”. Besides, in data set [6], the “IOP at 120 min (% Baseline)” value stood at 48.8 ± 2.8 % Baseline.

For the compound `N=C(N)NN` [aminoguanidine], the “Less peripheral retinal ganglion cell loss compared to untreated rats” value in data set [8] is 26%.
